Assay results published in ChEMBL document CHEMBL1128053, “Inhibition of matrix metalloproteinases by N-carboxyalkyl dipeptides: Enhanced potency and selectivity with substituted P1 homophenylalanines” (Bioorg Med Chem Lett, 1995).

Assays:
Interstitial collagenase = target: T1, Interstitial collagenase (Homo sapiens, UniProt P03956)
T1 sequence (P03956 whole entry): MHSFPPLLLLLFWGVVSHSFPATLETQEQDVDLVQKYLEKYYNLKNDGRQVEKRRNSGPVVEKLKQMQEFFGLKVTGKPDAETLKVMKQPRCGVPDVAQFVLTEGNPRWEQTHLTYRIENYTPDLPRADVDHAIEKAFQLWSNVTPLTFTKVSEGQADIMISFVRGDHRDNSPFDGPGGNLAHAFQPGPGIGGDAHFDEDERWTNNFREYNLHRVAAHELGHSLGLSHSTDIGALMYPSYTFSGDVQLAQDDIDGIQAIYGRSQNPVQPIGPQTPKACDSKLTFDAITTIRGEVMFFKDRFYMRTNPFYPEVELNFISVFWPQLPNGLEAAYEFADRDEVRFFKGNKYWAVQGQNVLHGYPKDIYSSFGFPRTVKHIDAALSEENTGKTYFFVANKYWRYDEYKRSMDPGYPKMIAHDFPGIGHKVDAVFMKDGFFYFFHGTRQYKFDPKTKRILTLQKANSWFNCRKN

[1] = target: 72 kDa type IV collagenase (Homo sapiens, UniProt P08253)
Sequence of 72 kDa type IV collagenase (P08253 whole entry): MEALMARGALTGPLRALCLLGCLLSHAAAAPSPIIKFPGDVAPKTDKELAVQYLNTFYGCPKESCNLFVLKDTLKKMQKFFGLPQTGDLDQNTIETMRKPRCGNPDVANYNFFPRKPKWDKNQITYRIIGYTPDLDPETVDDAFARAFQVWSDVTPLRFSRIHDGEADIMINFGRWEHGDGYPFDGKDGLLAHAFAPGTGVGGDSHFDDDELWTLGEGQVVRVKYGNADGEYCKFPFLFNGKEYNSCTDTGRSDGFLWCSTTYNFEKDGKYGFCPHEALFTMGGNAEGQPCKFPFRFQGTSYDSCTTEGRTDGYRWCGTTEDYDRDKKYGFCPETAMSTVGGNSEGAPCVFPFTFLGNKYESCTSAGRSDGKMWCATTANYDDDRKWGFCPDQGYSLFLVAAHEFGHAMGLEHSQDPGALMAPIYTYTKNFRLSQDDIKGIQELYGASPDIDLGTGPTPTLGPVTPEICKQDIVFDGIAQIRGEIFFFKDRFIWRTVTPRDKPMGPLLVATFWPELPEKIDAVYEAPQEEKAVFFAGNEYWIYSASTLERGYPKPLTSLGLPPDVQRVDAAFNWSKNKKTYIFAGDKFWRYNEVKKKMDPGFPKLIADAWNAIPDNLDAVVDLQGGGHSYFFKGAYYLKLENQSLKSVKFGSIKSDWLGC

| SMILES | Ki (Interstitial collagenase) | Ki [1] |
| --- | --- | --- |
| CCc1ccc(CC[C@H](N[C@H](C)C(=O)O)C(=O)N[C@@H](CC(C)C)C(=O)Nc2ccccc2)cc1 | 2300 nM | 12 nM |
| COc1ccccc1CC[C@H](N[C@H](C)C(=O)O)C(=O)N[C@@H](CC(C)C)C(=O)Nc1ccccc1 | > 10000 nM | – |
| COc1ccc(CC[C@H](N[C@H](C)C(=O)O)C(=O)N[C@@H](CC(C)C)C(=O)Nc2ccccc2)cc1OC | > 10000 nM | > 10000 nM |
| COc1cccc(CC[C@H](N[C@H](C)C(=O)O)C(=O)N[C@@H](CC(C)C)C(=O)Nc2ccccc2)c1 | > 10000 nM | – |
| Cc1ccc(CC[C@H](N[C@H](C)C(=O)O)C(=O)N[C@@H](CC(C)C)C(=O)Nc2ccccc2)cc1C | 7700 nM | 25 nM |
| Cc1ccccc1CC[C@H](N[C@H](C)C(=O)O)C(=O)N[C@@H](CC(C)C)C(=O)Nc1ccccc1 | > 10000 nM | – |
| Cc1cc(C)cc(CC[C@H](N[C@H](C)C(=O)O)C(=O)N[C@@H](CC(C)C)C(=O)Nc2ccccc2)c1 | > 10000 nM | 4840 nM |
| CCCc1ccc(CC[C@H](N[C@H](C)C(=O)O)C(=O)N[C@@H](CC(C)C)C(=O)Nc2ccccc2)cc1 | 5900 nM | 3.5 nM |
| CC(C)C[C@H](NC(=O)[C@H](CCc1ccc(Cl)cc1)N[C@H](C)C(=O)O)C(=O)Nc1ccccc1 | 2100 nM | 77 nM |
| Cc1cccc(CC[C@H](N[C@H](C)C(=O)O)C(=O)N[C@@H](CC(C)C)C(=O)Nc2ccccc2)c1 | 1500 nM | – |
| CC(C)C[C@H](NC(=O)[C@H](CCc1cccc(Cl)c1)N[C@H](C)C(=O)O)C(=O)Nc1ccccc1 | 3300 nM | – |
| Cc1ccc(CC[C@H](N[C@H](C)C(=O)O)C(=O)N[C@@H](CC(C)C)C(=O)Nc2ccccc2)cc1 | 1900 nM | – |
| CC(C)Cc1cccc(CC[C@H](N[C@H](C)C(=O)O)C(=O)N[C@@H](CC(C)C)C(=O)Nc2ccccc2)c1 | > 10000 nM | 6100 nM |
| CC(C)C[C@H](NC(=O)[C@H](CCc1cccc(O)c1)N[C@H](C)C(=O)O)C(=O)Nc1ccccc1 | 510 nM | – |
| CC(C)C[C@H](NC(=O)[C@H](CCc1ccc(C(F)(F)F)cc1)N[C@H](C)C(=O)O)C(=O)Nc1ccccc1 | 5100 nM | 110 nM |
| CCOc1ccc(CC[C@H](N[C@H](C)C(=O)O)C(=O)N[C@@H](CCCNC(=N)N)C(=O)Nc2ccccc2)cc1 | 2300 nM | 6.1 nM |
| CCCc1ccc(CC[C@H](N[C@H](C)C(=O)O)C(=O)N[C@@H](CCCN=C(N)N)C(=O)Nc2ccccc2)cc1 | 2900 nM | 3 nM |
| CCCCc1ccc(CC[C@H](N[C@H](C)C(=O)O)C(=O)N[C@@H](CCCNC(=N)N)C(=O)Nc2ccccc2)cc1 | > 10000 nM | 2.1 nM |
| CC(C)C[C@H](NC(=O)[C@H](CCc1ccccc1O)N[C@H](C)C(=O)O)C(=O)Nc1ccccc1 | 2700 nM | – |
| CC(C)C[C@H](NC(=O)[C@H](CCc1ccc(O)cc1)N[C@H](C)C(=O)O)C(=O)Nc1ccccc1 | 1000 nM | – |
| C[C@@H](N[C@@H](CCc1ccccc1)C(=O)N[C@@H](CCCNC(=N)N)C(=O)Nc1ccccc1)C(=O)O | 470 nM | 210 nM |
| CC(C)C[C@H](NC(=O)[C@H](CCc1ccc(C(C)C)cc1)N[C@H](C)C(=O)O)C(=O)Nc1ccccc1 | > 10000 nM | 130 nM |
| CC(C)Cc1ccc(CC[C@H](N[C@H](C)C(=O)O)C(=O)N[C@@H](CC(C)C)C(=O)Nc2ccccc2)cc1 | > 10000 nM | 11 nM |
| CC(C)C[C@H](NC(=O)[C@H](CCc1ccc(F)cc1)N[C@H](C)C(=O)O)C(=O)Nc1ccccc1 | 870 nM | 220 nM |
